In patent US9011853B2, “B7-H4 fusion proteins and methods of use thereof” (Amplimmune, Inc., priority 2009, dated 2015):

Tests used:
DBA/1J mice = assay: CIA therapeutic model, arthritis score; assay type: in vivo, mouse; conditions: 300 μg IP 3 times a week for 4 weeks from CII rechallenge (day 21); days 38 and beyond; vs vehicle (FIG. 5)
Experimental: FIG. 4 outlines a brief experimental design of the CIA therapeutic study. DBA/1J mice were first immunized with chicken CII emulsified in CFA. Twenty one days later, the mice were rechallenged with CII emulsified in IFA and randomized into 2 groups. Group 1 (n=10) were IP injected with 300 μg of B7-H4-Ig, 3 times a week for 4 weeks. Group 2 (n=10) were injected with vehicle. Mouse paws/joints were monitored and scored 3 times a week.

SJL mice = assay: Delayed-type hypersensitivity (DTH) responses, 24 hr ear swelling assay in R-EAE mice; assay type: in vivo, mouse; conditions: given from Day 0, 5 injections, both 3 mg/kg (60 μg) and 15 mg/kg (300 μg); ear challenge Day 10 (FIG. 39)
Experimental: DTH responses were quantitated using a 24 hr ear swelling assay as previously described. Pre-challenge ear thickness was determined using a Mitutoyo model 7326 engineer's micrometer (Schlesinger's Tools, Brooklyn, N.Y.). Immediately thereafter, DTH responses were elicited by injecting 10 μg of peptide in 10 μL of PBS into the dorsal surface of the ear using a 100 μL Hamilton syringe fitted with a 30 gauge needle. The increase in ear thickness over pre-challenge measurements was determined 24 hr after ear challenge. Results are expressed in units of 10^−4 inches±SEM. […] Significance of ear swelling in murine B7-H4-Ig treated mice over Control IgG injected mice was assessed by the Student's t test.
To determine the effect of B7-H4-Ig on blocking CD4^+ T cell mediated activity specific for the primary myelin-derived epitope PLP139-151 and epitope spreading, peptide-specific responses in vivo via DTH on all 4 treatment groups were analyzed. Mice were ear challenged with 10 μg of the indicated peptides on Day 50, and swelling was measured 24 h later.
To clarify the effect of B7-H4-Ig on the EAE acute phase, a 2nd in vivo experiment was conducted in the PLP139-151 induced MAE model. […] Mice were ear challenged with 10 μg of PLP139-151 on Day 10, and swelling was measured 24 h later. […]

[1] = test system: CD4^+CD62L^+ naïve T cells; assay: Mouse Th17 assay, IL-17A ELISA; assay type: cell-based; conditions: 20, 10, 5, 2.5, and 1.25 μg/mL (FIGS. 57, 58)
Experimental: CD4^+CD62L^+ naïve T cells were isolated from BALB/c mice as in the above examples, and activated by anti-CD3 and anti-CD28 bound beads in the presence of Th17 differntiation cocktail (TGF-β1 (10 ng/mL), IL-6 (50 ng/mL), IL-23 (4 ng/mL), anti-IL-4 (10 μg/mL), anti-IFN-γ (5 μg/mL) and anti-IL-2 (5 μg/mL)). Murine B7-H4-Ig (10 μg/mL) or retinoic acid (RA) (10 μM) was added to the cultures on day 0, day 1, or day 2 of the 4 day culture. IL-17A levels were measured by ELISA at the end of the 4 day culture.
The Th17 assay is 4 days in duration. In order to determine when B7-H4-Ig is acting, the Th17 assay was performed with the addition of 10 μg/mL of murine B7-H4-Ig, 10 μg/mL of mouse IgG control, or […] retinoic acid on Day 0, Day 1, or Day 2.
Peripheral T cells were obtained from spleens and inguinal lymph nodes of 6-9 week old BALB/c mice by mechanical disruption through a cell strainer followed by red blood cell (RBC) lysis.
Naïve helper T cells (CD4^+CD62L^+) were obtained using the Miltenyi Biotec microbead system. CD4^+ cells are enriched by negative selection, and followed by a positive selection of CD62L^+. In some experiments CD25+ cells were also depleted.
After selection, cells are activated in vitro with anti-CD3/CD28 beads at a 1:1 cell:bead ratio in the presence of the TH17 differentiation cocktail (TGF-β1 (10 ng/ml), IL-6 (50 ng/ml), IL-23 (4 ng/ml), anti-IL-2 (5 μg/ml), anti-IL-4 (10 μg/ml), and anti-IFN-γ (5 μg/ml)). Murine B7-H4-Ig is added at a final concentration of 1.25-20 μg/ml. Retinoic acid (RA) is used as positive control and mouse IgG is used as a negative control.
After 4 days of culture, cultures are spun down and supernatants are harvested and stored at <−65° C. until analyzed for IL-17A levels by ELISA.

Substance	overall arthritis scores (DBA/1J mice)	DTH response to PLP139-151 peptide versus OVA323-339 peptide (SJL mice)	activity on mouse cells in the Th17 assay (IL-17A) [1]
B7-H4-Ig: B7-H4 extracellular domain fused to Ig Fc; bare label is the human protein in Example 3, murine protein in Examples 1, 2, 5, 7-11	significantly lower than the ones of vehicle injected CIA mice	significantly inhibited	–
Human B7-H4-Ig: human B7-H4 extracellular domain fused to hinge, CH2 and CH3 regions of human immunoglobulin Cγ1 chain; representative SEQ ID NOs:114-137	–	–	active
